The text below walks through data of ChEMBL document CHEMBL1151483, “Hantupeptin A, a cytotoxic cyclic depsipeptide from a Singapore collection of Lyngbya majuscula” (J Nat Prod, 2009).

Structures are written as SMILES. pIC50: −log10 of the molar value. Active and inactive are the calls of the source. The rule behind the calls is not given here.

The subject of one data set is KB. Description: Cytotoxicity against human KB cells at 10 ug/mL after 24 hrs by MTT assay. The data set is classed as functional, cell-based. (Tetrazolium dyes change colour on reduction, which living cells bring about.)
Another data set relates to LoVo. As to the kind of experiment: Cytotoxicity against human LoVo cells at 10 ug/mL after 24 hrs by MTT assay. The data set is classed as functional, cell-based.
Data set [1] can be described thus: Toxicity in brine shrimp at 10 ppm. Format: organism-based. Particulars: artemia, in vivo; read-out: Activity.
The subject of another data set is MCF7. As to the kind of experiment: Cytotoxicity against human MCF7 cells after 24 hrs by MTT assay. Format: functional, cell-based. Particulars: MCF7, 24 h.
Data set [2] can be described thus: Toxicity in brine shrimp at 100 ppm. The data set is classed as organism-based. Particulars: artemia, in vivo; read-out: Activity.
Another data set has as its system MOLT-4. As to the kind of experiment: Cytotoxicity against human MOLT4 cells after 24 hrs by MTT assay. The data set is classed as functional, cell-based. Particulars: MOLT-4, 24 h.

On to `C#CCCC[C@H]1OC(=O)[C@H]([C@@H](C)CC)NC(=O)[C@@H]2CCCN2C(=O)[C@H](Cc2ccccc2)OC(=O)[C@H](C(C)C)N(C)C(=O)[C@H](C(C)C)NC(=O)[C@H]1C`, for which the result in the data set on KB and in the data set on LoVo was inactive.

The term pIC50 denotes the IC50 on a negative log10 scale, so that one unit is a factor of ten. Lower therefore signals a large IC50. As for `C#CCCC[C@@H]1OC(=O)[C@H](C(C)C)N(C)C(=O)[C@@H]2CCCN2C(=O)[C@H](Cc2ccccc2)OC(=O)[C@H]([C@@H](C)CC)N(C)C(=O)[C@H](C(C)C)NC(=O)C1C` (stereo partly drawn) [HANTUPEPTIN A], the mortality at 10 ppm in data set [1] was determined as 100%. Further, the result in the data set with KB and in the data set on LoVo was inactive. For the same compound, the pIC50 in the data set with MCF7 was 5.40; in the data set with MOLT-4, 7.49. In addition, the mortality at 100 ppm in data set [2] is 100%.
